This passage reports Ki and ED50 results from US4690930A, “Pyrazolo[4,3-c]quinoline-3-one and imidazo[4,3-c]cinnolin-3-one derivatives and their use as psychotropic agents” (Shionogi & Co., Ltd, priority 1984, dated 1987).

The first assay addresses benzodiazepine receptor. The experiment in a line: Binding test to benzodiazepine receptor (inhibition of specific binding of tritium labeled diazepam). The following applies: 2 nM tritium labeled diazepam, rat cerebral cortex, 0° C., 60 minutes; Ki calculated from IC50. Also on record: species or system Wistar rats (cerebral cortex). Here is the method: Binding test to benzodiazepine receptor
This test was carried out in the modified method of Moeler & Okada, Science, 198, 849-851 (1977).
Receptor preparation was provided from the cerebral cortex of Wistar rats (male, 11 to 13 weeks age). Inhibitory action of the test compound on the specific binding of tritium labeled diazepam to the receptor was evaluated as follows. 2 nM tritium labeled diazepam and an aqueous solution of the test compound at 5 or 6 concentrations were incubated with the receptor preparation at 0° C. for 60 minutes. The 50% inhibitory concentration (IC50) was measured by the concentration-response curve.
The inhibitory constant (Ki) was calculated according to the following equation, in which Kd is the dissociation constant of the tritium labeled diazepam and L is the concentration of the labeled ligand. [formula]
In the case of `Cc1ccc(-n2nc3c4ccccc4[nH]cc-3c2=O)s1` [Ic1 -1, 2-[2-(5-Methylthienyl)]-2,5-dihydro-3H-pyrazolo[4,3-c]quinolin-3-one], the Ki (commonly the equilibrium dissociation constant of an inhibitor or competing ligand from its target) was 0.35 nM.

For `CCc1ccc(-n2nc3c4ccccc4[nH]cc-3c2=O)s1` [Ic1 -2], the Ki is 1.51 nM.

Consider `Cc1cc(-n2nc3c4ccccc4[nH]cc-3c2=O)sc1C` [Ic1 -3], for which the Ki is 0.63 nM.

On to `CCCCc1ccc(-n2nc3c4ccccc4[nH]cc-3c2=O)s1` [Ic1 -5], for which the Ki is 1.53 nM.

As to `Cc1ccc2[nH]cc3c(=O)n(-c4ccc(C)s4)nc-3c2c1` [Ic1 -6], the Ki was 0.22 nM.

With `COc1ccc2[nH]cc3c(=O)n(-c4ccc(C)s4)nc-3c2c1` [Ic1 -7], the Ki is 0.17 nM.

For the molecule `Cc1ccc(-n2nc3c4cc(Cl)ccc4[nH]cc-3c2=O)s1` [Ic1 -8], the Ki was 0.31 nM.

Regarding `Cc1ccc(-n2nc3c4cc(F)ccc4[nH]cc-3c2=O)s1` [Ic1 -9], the Ki is 0.14 nM.

With `Cc1ccc2c3nn(-c4ccc(C)s4)c(=O)c-3c[nH]c2c1` [Ic1 -10], the Ki was 1.44 nM.

For the molecule `Cc1ccc(-n2nc3c4ccc(Cl)cc4[nH]cc-3c2=O)s1` [Ic1 -11], the Ki was 1.11 nM.

As for `Cc1csc(-n2nc3c4ccccc4[nH]cc-3c2=O)c1` [Ic1 -12], the Ki is 0.38 nM.

Consider `O=c1c2c[nH]c3ccccc3c-2nn1-c1ccsc1` [Ic2 -1, 2-(3-Thienyl)-2,5-dihydro-3H-pyrazolo[4,3-c]quinolin-3-one], for which the Ki is 0.29 nM.

Take `Cc1cc(-n2nc3c4ccccc4[nH]cc-3c2=O)cs1` [Ic2 -2, 2-[3-(5-methylthienyl)]-2,5-dihydro-3H-pyrazolo[4,3-c]quinolin-3-one]: the Ki was 0.45 nM.

On to `Cc1ccc2[nH]cc3c(=O)n(-c4csc(C)c4)nc-3c2c1` [Ic2 -4], for which the Ki is 0.3 nM.

With `COc1ccc2[nH]cc3c(=O)n(-c4csc(C)c4)nc-3c2c1` [Ic2 -5, 2-[3-(5-methylthienyl)]-8-methoxy-2,5-dihydro-3H-pyrazolo[4,3-c]quinolin-3-one], the Ki was 0.39 nM.

On to `Cc1cc(-n2nc3c4cc(Cl)ccc4[nH]cc-3c2=O)cs1` [Ic2 -6], for which the Ki was 0.58 nM.

In the case of `Cc1cc(-n2nc3c4cc(F)ccc4[nH]cc-3c2=O)cs1` [Ic2 -7], the Ki is 0.17 nM.

On to `Cc1ccc2c3nn(-c4csc(C)c4)c(=O)c-3c[nH]c2c1` [Ic2 -8], for which the Ki was 1.24 nM.

For the molecule `Cc1cc(-n2nc3c4ccc(Cl)cc4[nH]cc-3c2=O)cs1` [Ic2 -9], the Ki was 0.96 nM.

In a further assay the test system is male mice. As to the kind of experiment: Inverse agonist activity (oral compound 1 hour before subcutaneous pentylenetetrazol, mice). The format is in vivo. Particulars: Mus musculus, 1 hour before s.c. 75 mg/kg pentylenetetrazol (subconvulsive dose), 8-16 male mice a group, Probit method, read-out: ED50 (dose at which 50% of mice died). Here is the method:
Inverse agonist activity was evaluated by the following procedure.
The test compound was administered orally to 8-16 male mice a group, 1 hour before a subcutaneous administration of 75 mg/kg of pentylenetetrazol (a subconvulsive dose). The dose (ED50) at which 50% of mice died, was calculated by the Probit method.
Consider `O=c1c2c[nH]c3ccccc3c-2nn1-c1nccs1` [Control 2, reference compound], for which the ED50 – broadly, the midpoint of the dose-response relation – turned out to be 87 mg/kg.

`Cc1cc(-n2nc3c4ccccc4[nH]cc-3c2=O)cs1` [Ic2 -2, 2-[3-(5-methylthienyl)]-2,5-dihydro-3H-pyrazolo[4,3-c]quinolin-3-one]: the median effective dose (ED50) worked out at 1.67 mg/kg.
